Measurements: patent publication US12493040B2, “Cancer detection method using sense of smell of nematode” (HIROTSU BIO SCIENCE INC., priority 2013, dated 2025)

Test system: RNAi-treated eri-1 (mg366) nematodes
Experiment: RNAi screening of olfactory receptor genes: chemotaxis assay of RNAi-treated nematodes to odorants
Format: in vivo, Caenorhabditis elegans
Conditions: repellent or high concentration of attractant
In short: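 Chemotaxis of adult RNAi-fed eri-1 (mg366) nematodes (30–50 per test) was measured toward low (1 μl, 10^−3 or 10^−4 dilution) or high (1 and 5 μl neat) odorant doses. Knockdown: 4 days feeding on E. coli from Ahringer library with IPTG and ampicillin. Differences called by z score at ±1.96, weaker cutoff ±0.96.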

`CCCCCCCC(C)=O` [nonanone] gave a chemotaxis index (Control nematodes) of −0.91 ± 0.009, a chemotaxis index (srh-4 RNAi-treated nematodes) of −0.87 and a chemotaxis index (srh-7 RNAi-treated nematodes) of −0.78. The chemotaxis index (srh-8 RNAi-treated nematodes) was −0.86, the chemotaxis index (srh-10 RNAi-treated nematodes) was −0.88 and the chemotaxis index (srh-11 RNAi-treated nematodes) was −0.65. It also gave a chemotaxis index (srh-15 RNAi-treated nematodes) of −0.25, a chemotaxis index (srh-16 RNAi-treated nematodes) of −0.63 and a chemotaxis index (srh-18 RNAi-treated nematodes) of −0.26. The chemotaxis index (srh-19 RNAi-treated nematodes) was −0.80, the chemotaxis index (srh-22 RNAi-treated nematodes) was −0.89 and the chemotaxis index (srh-23 RNAi-treated nematodes) was −0.77. For the same compound, the chemotaxis index (srh-24 RNAi-treated nematodes) was −0.79, the chemotaxis index (srh-25 RNAi-treated nematodes) was −0.06 and the chemotaxis index (srh-27 RNAi-treated nematodes) was −0.79. The chemotaxis index (srh-28 RNAi-treated nematodes) was −0.71, the chemotaxis index (srh-36 RNAi-treated nematodes) was −0.57 and the chemotaxis index (srh-37 RNAi-treated nematodes) was −0.89. It also gave a chemotaxis index (srh-39 RNAi-treated nematodes) of −0.90, a chemotaxis index (srh-40 RNAi-treated nematodes) of −0.83 and a chemotaxis index (srh-41 RNAi-treated nematodes) of −0.62. For the same compound, the chemotaxis index (srh-44 RNAi-treated nematodes) was −0.58, the chemotaxis index (srh-45 RNAi-treated nematodes) was −0.91 and the chemotaxis index (srh-46 RNAi-treated nematodes) was −0.87. For the same compound, the chemotaxis index (srh-48 RNAi-treated nematodes) was −0.79, the chemotaxis index (srh-49 RNAi-treated nematodes) was −0.91 and the chemotaxis index (srh-50 RNAi-treated nematodes) was −0.96. For the same compound, the chemotaxis index (srh-51 RNAi-treated nematodes) was −0.90, the chemotaxis index (srh-52 RNAi-treated nematodes) was −0.85 and the chemotaxis index (srh-55 RNAi-treated nematodes) was −0.96. It also gave a chemotaxis index (srh-59 RNAi-treated nematodes) of −0.79, a chemotaxis index (srh-60 RNAi-treated nematodes) of −0.83 and a chemotaxis index (srh-61 RNAi-treated nematodes) of −0.68. The chemotaxis index (srh-67 RNAi-treated nematodes) was −0.61, the chemotaxis index (srh-68 RNAi-treated nematodes) was −0.65 and the chemotaxis index (srh-69 RNAi-treated nematodes) was −0.84. It also gave a chemotaxis index (srh-70 RNAi-treated nematodes) of −0.81, a chemotaxis index (srh-71 RNAi-treated nematodes) of −0.80 and a chemotaxis index (srh-72 RNAi-treated nematodes) of −0.87. It also gave a chemotaxis index (srh-74 RNAi-treated nematodes) of −0.96, a chemotaxis index (srh-75 RNAi-treated nematodes) of −0.86 and a chemotaxis index (srh-77 RNAi-treated nematodes) of −0.74. It also gave a chemotaxis index (srh-79 RNAi-treated nematodes) of −0.61, a chemotaxis index (srh-80 RNAi-treated nematodes) of −0.81 and a chemotaxis index (srh-82 RNAi-treated nematodes) of −0.96. For the same compound, the chemotaxis index (srh-83 RNAi-treated nematodes) was −0.70, the chemotaxis index (srh-97 RNAi-treated nematodes) was −0.66 and the chemotaxis index (srh-99 RNAi-treated nematodes) was −0.82. The chemotaxis index (srh-100 RNAi-treated nematodes) was −0.48, the chemotaxis index (srh-104 RNAi-treated nematodes) was −0.71 and the chemotaxis index (srh-105 RNAi-treated nematodes) was −0.80. For the same compound, the chemotaxis index (srh-109 RNAi-treated nematodes) was −0.84, the chemotaxis index (srh-111 RNAi-treated nematodes) was −0.71 and the chemotaxis index (srh-113 RNAi-treated nematodes) was −0.91. The chemotaxis index (srh-115 RNAi-treated nematodes) was −0.75, the chemotaxis index (srh-116 RNAi-treated nematodes) was −0.69 and the chemotaxis index (srh-118 RNAi-treated nematodes) was −0.89. It also gave a chemotaxis index (srh-119 RNAi-treated nematodes) of −0.84, a chemotaxis index (srh-120 RNAi-treated nematodes) of −0.68 and a chemotaxis index (srh-122 RNAi-treated nematodes) of −0.84. The chemotaxis index (srh-123 RNAi-treated nematodes) was −0.90, the chemotaxis index (srh-125 RNAi-treated nematodes) was −0.77 and the chemotaxis index (srh-128 RNAi-treated nematodes) was −0.89. It also gave a chemotaxis index (srh-129 RNAi-treated nematodes) of −0.90, a chemotaxis index (srh-130 RNAi-treated nematodes) of −0.94 and a chemotaxis index (srh-131 RNAi-treated nematodes) of −0.45. The chemotaxis index (srh-132 RNAi-treated nematodes) was −0.84, the chemotaxis index (srh-139 RNAi-treated nematodes) was −0.91 and the chemotaxis index (srh-140 RNAi-treated nematodes) was −0.80. It also gave a chemotaxis index (srh-141 RNAi-treated nematodes) of −0.94, a chemotaxis index (srh-142 RNAi-treated nematodes) of −0.94 and a chemotaxis index (srh-145 RNAi-treated nematodes) of −0.44. The chemotaxis index (srh-148 RNAi-treated nematodes) was −0.78, the chemotaxis index (srh-154 RNAi-treated nematodes) was −0.58 and the chemotaxis index (srh-159 RNAi-treated nematodes) was −0.48. It also gave a chemotaxis index (srh-165 RNAi-treated nematodes) of −0.40, a chemotaxis index (srh-166 RNAi-treated nematodes) of −1.00 and a chemotaxis index (srh-167 RNAi-treated nematodes) of −1.00. It also gave a chemotaxis index (srh-169 RNAi-treated nematodes) of −0.92, a chemotaxis index (srh-174 RNAi-treated nematodes) of −0.92 and a chemotaxis index (srh-179 RNAi-treated nematodes) of −0.97. It also gave a chemotaxis index (srh-182 RNAi-treated nematodes) of −0.98, a chemotaxis index (srh-186 RNAi-treated nematodes) of −0.93 and a chemotaxis index (srh-190 RNAi-treated nematodes) of −1.00. For the same compound, the chemotaxis index (srh-193 RNAi-treated nematodes) was −0.84, the chemotaxis index (srh-195 RNAi-treated nematodes) was −0.98 and the chemotaxis index (srh-201 RNAi-treated nematodes) was −0.97. It also gave a chemotaxis index (srh-203 RNAi-treated nematodes) of −1.00, a chemotaxis index (srh-204 RNAi-treated nematodes) of −1.00 and a chemotaxis index (srh-206 RNAi-treated nematodes) of −1.00. For the same compound, the chemotaxis index (srh-207 RNAi-treated nematodes) was −1.00, the chemotaxis index (srh-208 RNAi-treated nematodes) was −0.82 and the chemotaxis index (srh-209 RNAi-treated nematodes) was −0.84. The chemotaxis index (srh-210 RNAi-treated nematodes) was −0.66, the chemotaxis index (srh-214 RNAi-treated nematodes) was −0.96 and the chemotaxis index (srh-216 RNAi-treated nematodes) was −0.83. For the same compound, the chemotaxis index (srh-217 RNAi-treated nematodes) was −0.44, the chemotaxis index (srh-220 RNAi-treated nematodes) was −0.28 and the chemotaxis index (srh-222 RNAi-treated nematodes) was −0.82. The chemotaxis index (srh-223 RNAi-treated nematodes) was −0.74.
